Key:
Format in all cases: functional
UACC-257 = test: Growth inhibition of human UACC257 cells at 10^-5 M incubated for 48 hrs by sulforhodamine B assay; settings: UACC-257, 48 h, read-out: GI
IGROV-1 = test: Growth inhibition of human IGROV1 cells at 10^-5 M incubated for 48 hrs by sulforhodamine B assay; settings: IGROV-1, 48 h, read-out: GI
SNB-75 = test: Growth inhibition of human SNB75 cells at 10^-5 M incubated for 48 hrs by sulforhodamine B assay; settings: SNB-75, 48 h, read-out: GI
HL-60(TB) = test: Growth inhibition of human HL-60(TB) cells at 10^-5 M incubated for 48 hrs by sulforhodamine B assay; settings: HL-60, 48 h, read-out: GI
SK-MEL-5 = test: Growth inhibition of human SK-MEL-5 cells at 10^-5 M incubated for 48 hrs by sulforhodamine B assay; settings: SK-MEL-5, 48 h, read-out: GI
NCI/ADR-RES = test: Growth inhibition of human NCI/ADR-RES cells at 10^-5 M incubated for 48 hrs by sulforhodamine B assay; settings: read-out: GI
ACHN = test: Growth inhibition of human ACHN cells at 10^-5 M incubated for 48 hrs by sulforhodamine B assay; settings: read-out: GI
SW-620 = test: Growth inhibition of human SW620 cells at 10^-5 M incubated for 48 hrs by sulforhodamine B assay; settings: SW-620, 48 h, read-out: GI
SF-268 = test: Growth inhibition of human SF268 cells at 10^-5 M incubated for 48 hrs by sulforhodamine B assay; settings: SF-268, 48 h, read-out: GI
COLO 205 = test: Growth inhibition of human COLO205 cells at 10^-5 M incubated for 48 hrs by sulforhodamine B assay; settings: COLO 205, 48 h, read-out: GI
MCF7 = test: Growth inhibition of human MCF7 cells at 10^-5 M incubated for 48 hrs by sulforhodamine B assay; settings: MCF7, 48 h, read-out: GI
CAKI-1 = test: Growth inhibition of human Caki1 cells at 10^-5 M incubated for 48 hrs by sulforhodamine B assay; settings: CAKI-1, 48 h, read-out: GI
HCT-15 = test: Growth inhibition of human HCT15 cells at 10^-5 M incubated for 48 hrs by sulforhodamine B assay; settings: HCT-15, 48 h, read-out: GI
NCI-H522 = test: Growth inhibition of human NCI-H522 cells at 10^-5 M incubated for 48 hrs by sulforhodamine B assay; settings: NCI-H522, 48 h, read-out: GI
LOX IMVI = test: Growth inhibition of human LOXIMVI cells at 10^-5 M incubated for 48 hrs by sulforhodamine B assay; settings: read-out: GI
UO-31 = test: Growth inhibition of human UO31 cells at 10^-5 M incubated for 48 hrs by sulforhodamine B assay; settings: UO-31, 48 h, read-out: GI
DU-145 = test: Growth inhibition of human DU145 cells at 10^-5 M incubated for 48 hrs by sulforhodamine B assay; settings: DU-145, 48 h, read-out: GI
MDA-MB-435 = test: Growth inhibition of human MDA-MB-435 cells at 10^-5 M incubated for 48 hrs by sulforhodamine B assay; settings: MDA-MB-435, 48 h, read-out: GI
HOP-62 = test: Growth inhibition of human HOP62 cells at 10^-5 M incubated for 48 hrs by sulforhodamine B assay; settings: HOP-62, 48 h, read-out: GI
MOLT-4 = test: Growth inhibition of human MOLT4 cells at 10^-5 M incubated for 48 hrs by sulforhodamine B assay; settings: MOLT-4, 48 h, read-out: GI
NCI-H226 = test: Growth inhibition of human NCI-H226 cells at 10^-5 M incubated for 48 hrs by sulforhodamine B assay; settings: NCI-H226, 48 h, read-out: GI
OVCAR-4 = test: Growth inhibition of human OVCAR4 cells at 10^-5 M incubated for 48 hrs by sulforhodamine B assay; settings: OVCAR-4, 48 h, read-out: GI
HCC 2998 = test: Growth inhibition of human HCC2998 cells at 10^-5 M incubated for 48 hrs by sulforhodamine B assay; settings: HCC 2998, 48 h, read-out: GI
Hs-578T = test: Growth inhibition of human Hs 578T cells at 10^-5 M incubated for 48 hrs by sulforhodamine B assay; settings: read-out: GI
KM12 = test: Growth inhibition of human KM12 cells at 10^-5 M incubated for 48 hrs by sulforhodamine B assay; settings: KM12, 48 h, read-out: GI
EKVX = test: Growth inhibition of human EKVX cells at 10^-5 M incubated for 48 hrs by sulforhodamine B assay; settings: read-out: GI
HCT-116 = test: Growth inhibition of human HCT116 cells at 10^-5 M incubated for 48 hrs by sulforhodamine B assay; settings: HCT-116, 48 h, read-out: GI
A549 = test: Growth inhibition of human A549/ATCC cells at 10^-5 M incubated for 48 hrs by sulforhodamine B assay; settings: A549, 48 h, read-out: GI
SK-MEL-28 = test: Growth inhibition of human SK-MEL-28 cells at 10^-5 M incubated for 48 hrs by sulforhodamine B assay; settings: SK-MEL-28, 48 h, read-out: GI
CCRF-CEM = test: Growth inhibition of human CCRF-CEM cells at 10^-5 M incubated for 48 hrs by sulforhodamine B assay; settings: read-out: GI
U-251 = test: Growth inhibition of human U251 cells at 10^-5 M incubated for 48 hrs by sulforhodamine B assay; settings: U-251, 48 h, read-out: GI
MDA-MB-468 = test: Growth inhibition of human MDA-MB-468 cells at 10^-5 M incubated for 48 hrs by sulforhodamine B assay; settings: MDA-MB-468, 48 h, read-out: GI
HT-29 = test: Growth inhibition of human HT-29 cells at 10^-5 M incubated for 48 hrs by sulforhodamine B assay; settings: HT-29, 48 h, read-out: GI
OVCAR-5 = test: Growth inhibition of human OVCAR5 cells at 10^-5 M incubated for 48 hrs by sulforhodamine B assay; settings: OVCAR-5, 48 h, read-out: GI
786-0 = test: Growth inhibition of human 786-0 cells at 10^-5 M incubated for 48 hrs by sulforhodamine B assay; settings: 786-0, 48 h, read-out: GI
BT-549 = test: Growth inhibition of human BT549 cells at 10^-5 M incubated for 48 hrs by sulforhodamine B assay; settings: BT-549, 48 h, read-out: GI
NCI-H460 = test: Growth inhibition of human NCI-H460 cells at 10^-5 M incubated for 48 hrs by sulforhodamine B assay; settings: NCI-H460, 48 h, read-out: GI
SF-295 = test: Growth inhibition of human SF295 cells at 10^-5 M incubated for 48 hrs by sulforhodamine B assay; settings: SF-295, 48 h, read-out: GI

| SMILES | inhibition of growth at 10 µM (UACC-257) [%] | inhibition of growth at 10 µM (IGROV-1) [%] | inhibition of growth at 10 µM (SNB-75) [%] | inhibition of growth at 10 µM (HL-60(TB)) [%] | inhibition of growth at 10 µM (SK-MEL-5) [%] | inhibition of growth at 10 µM (NCI/ADR-RES) [%] | inhibition of growth at 10 µM (ACHN) [%] | inhibition of growth at 10 µM (SW-620) [%] | inhibition of growth at 10 µM (SF-268) [%] | inhibition of growth at 10 µM (COLO 205) [%] | inhibition of growth at 10 µM (MCF7) [%] | inhibition of growth at 10 µM (CAKI-1) [%] | inhibition of growth at 10 µM (HCT-15) [%] | inhibition of growth at 10 µM (NCI-H522) [%] | inhibition of growth at 10 µM (LOX IMVI) [%] | inhibition of growth at 10 µM (UO-31) [%] | inhibition of growth at 10 µM (DU-145) [%] | inhibition of growth at 10 µM (MDA-MB-435) [%] | inhibition of growth at 10 µM (HOP-62) [%] | inhibition of growth at 10 µM (MOLT-4) [%] | further results |
| --- | --- | --- | --- | --- | --- | --- | --- | --- | --- | --- | --- | --- | --- | --- | --- | --- | --- | --- | --- | --- | --- |
| N=C1Nc2c(sc3ccc(Cl)cc23)C(c2ccc3ccccc3c2)N1 (centres undefined) | 8.66 | -4.93 | 0.66 | -3.45 | -0.53 | 1.25 | 25.9 | 0.99 | -5.53 | -6.53 | 6.28 | -12.5 | 3.37 | -6.52 | 6.47 | 14.6 | 12.1 | -4.57 | 13.8 | 10.9 | inhibition of growth at 10 µM (NCI-H226): 6.58%; inhibition of growth at 10 µM (OVCAR-4): 6.63%; inhibition of growth at 10 µM (HCC 2998): 10.9%; inhibition of growth at 10 µM (Hs-578T): 14.6%; inhibition of growth at 10 µM (KM12): 3.41%; inhibition of growth at 10 µM (EKVX): 1.13%; inhibition of growth at 10 µM (HCT-116): 10.6%; inhibition of growth at 10 µM (A549): 7.42%; inhibition of growth at 10 µM (SK-MEL-28): 2.06%; inhibition of growth at 10 µM (CCRF-CEM): -3.9%; inhibition of growth at 10 µM (U-251): -0.54%; inhibition of growth at 10 µM (MDA-MB-468): -6.39%; inhibition of growth at 10 µM (HT-29): -3.45%; inhibition of growth at 10 µM (OVCAR-5): -3.77%; inhibition of growth at 10 µM (786-0): 5.33%; inhibition of growth at 10 µM (BT-549): 5.47%; inhibition of growth at 10 µM (NCI-H460): 13.2%; inhibition of growth at 10 µM (SF-295): -3.49% |
| NC(=O)CSC1=Nc2c(sc3ccc(Cl)cc23)C(c2cccc([N+](=O)[O-])c2)N1 (centres undefined) | -1.31 | 22 | 5.27 | -2.94 | 4.8 | -4.88 | 8.24 | -4.82 | -4.2 | -5.21 | 22.4 | 19.2 | -3.38 | 6.5 | 3.56 | 34.3 | -14.8 | -11.3 | 6.5 | 3.86 | inhibition of growth at 10 µM (NCI-H226): 10.4%; inhibition of growth at 10 µM (OVCAR-4): -4.84%; inhibition of growth at 10 µM (HCC 2998): -5.21%; inhibition of growth at 10 µM (Hs-578T): 1.5%; inhibition of growth at 10 µM (KM12): -8.1%; inhibition of growth at 10 µM (EKVX): 23.6%; inhibition of growth at 10 µM (HCT-116): 6.66%; inhibition of growth at 10 µM (A549): -4.42%; inhibition of growth at 10 µM (SK-MEL-28): -21.2%; inhibition of growth at 10 µM (CCRF-CEM): -22%; inhibition of growth at 10 µM (U-251): -1.2%; inhibition of growth at 10 µM (MDA-MB-468): 2.9%; inhibition of growth at 10 µM (HT-29): -3.66%; inhibition of growth at 10 µM (OVCAR-5): -5.8%; inhibition of growth at 10 µM (786-0): -0.38%; inhibition of growth at 10 µM (BT-549): -8.76%; inhibition of growth at 10 µM (NCI-H460): 19.3%; inhibition of growth at 10 µM (SF-295): -2.8% |
| O=C1Nc2c(sc3ccc(Cl)cc23)C(c2cccc(Br)c2)N1 (centres undefined) | -7.95 | 20.8 | 15.2 | 7.88 | 3.66 | 12.2 | 5.37 | -0.2 | 0.19 | -4.67 | -8.69 | 17.7 | -0.85 | -0.2 | -3.37 | -23.4 | -8.69 | -5.37 | 22.2 | 5.84 | inhibition of growth at 10 µM (NCI-H226): 3.66%; inhibition of growth at 10 µM (OVCAR-4): -6.24%; inhibition of growth at 10 µM (HCC 2998): -23.5%; inhibition of growth at 10 µM (Hs-578T): -5.56%; inhibition of growth at 10 µM (KM12): -0.31%; inhibition of growth at 10 µM (EKVX): 7.46%; inhibition of growth at 10 µM (HCT-116): 4.12%; inhibition of growth at 10 µM (A549): 5.34%; inhibition of growth at 10 µM (SK-MEL-28): -12.8%; inhibition of growth at 10 µM (CCRF-CEM): -14.4%; inhibition of growth at 10 µM (U-251): -3.91%; inhibition of growth at 10 µM (MDA-MB-468): -26.3%; inhibition of growth at 10 µM (HT-29): -7.8%; inhibition of growth at 10 µM (OVCAR-5): -1.01%; inhibition of growth at 10 µM (786-0): -1.2%; inhibition of growth at 10 µM (BT-549): -17.5%; inhibition of growth at 10 µM (NCI-H460): -0.32%; inhibition of growth at 10 µM (SF-295): -0.96% |

Source: ChEMBL document CHEMBL4414672, “Synthesis of certain benzothieno[3,2-d]pyrimidine derivatives as a selective SIRT2 inhibitors” (Eur J Med Chem, 2020)
